The text below walks through data of publication PMC12248599, “Exploring the Bioavailability of Red Grape Skin Extract Polyphenols: A Caco-2 Cell Model Study” (Foods, 2025).

“And” between values parts separate entries of the source, which are not always exact repeats. Equal values may be shown once. Marks after values point to notes of the source that are not given here.

This series has as its system Caco-2 cell monolayer. Description: Caco-2 monolayer transport (bioavailability) study, AB and BA directions. The format is in vitro ADME, Homo sapiens. Particulars: for detection at the acceptor side of the Caco-2 cell monolayer: AB and BA experiments; for Apical Side 0 min / Apical Side 75 min / Apical Side 90 min / Apical Side 115 min / Apical Side 180 min: AB experiment; for Apical Side 0 min / Apical Side 75 min / Apical Side 90 min / Apical Side 115 min / Apical Side 180 min / Basolateral Side 0 min / Basolateral Side 75 min / Basolateral Side 90 min / Basolateral Side 115 min / Basolateral Side 180 min: donor side. Here is the method:
A reversed phase C18 column (Luna 5 μm C18(2) 100 Å, LC Column 250 × 4.6 mm, Phenomenex) was used to separate the polyphenols at a flow rate of 0.7 mL/min with an injection volume of 60 µL. The detection was carried out at 520 nm for anthocyanins (M3G, D3G and Pet3G), at 328 nm for CA, at 356 nm for flavonols (Q3G, K3Gal and K3G) and at 280 nm for GA and SA. The mobile phases were (A) acetonitrile 100% and (B) water 0.1% trifluoroacetic acid (v/v). The gradient was programmed as follows: 10% A 0 min, 10–80% A (0–20 min), 80–100% A (20–25 min), 100% A (25–30 min); 10% A (30–35 min) and 10% A (35–40 min). Every polyphenol was quantified using the corresponding reference standard calibration curve. Each of the quantified phenolic compound concentration was expressed as mg/mL
For the transport experiment Caco-2 cells were cultured at a density of 4 × 10^4 cells/cm^2 in Transwell inserts (12 mm i.d., 1.12 cm^2 growth area, 0.4 µm mean pore size polycarbonate membranes, Corning Inc., Milwaukee, WI, USA) placed in 12-well plates. Caco-2 cells were grown in DMEM in an incubator at 37 °C in a humidified atmosphere containing 5% CO2.
Bioavailability studies were performed in triplicate after 21 days of cell growth. Only inserts with stable TEER values higher than ≥300 Ω cm^2 were considered acceptable to perform the bioavailability study. For that purpose, DMEM media was removed, the monolayer was washed with PBS and HBSS was supplied to the cells.
Likewise, the GSE stock solution was diluted in HBSS medium to prepare GSE solutions S1 and S2. GSE solutions S1 and S2 had concentrations of 15 mg/mL and 22 mg/mL, respectively. These concentrations were established considering previous studies with grape pomace extracts that concluded that intestinal concentrations of 1–2% (w/v) show potential bioactivities and are safe to be used as a food ingredient.
The apical side represents the intestinal lumen and the basolateral side represents the bloodstream. Each sample (100 µL) was immediately acidified with 1M HCl to a final concentration of 0.007 M and subsequently frozen at −20 °C until analysis by HPLC (according to the method described in Section 2.5). Each experiment was carried out on 3 individual wells. The transport efficiency (TE) percentage was calculated according to Equation (2):Transport efficiency (%) = (C/C0) × 100(2) where, C is the polyphenol concentration at the acceptor side over time and C0 is the initial concentration at the donor side. TE values were calculated for the nine polyphenols identified in the grape skin extract.
The apparent permeability coefficient (Papp) of the polyphenols in GSE was calculated for apical to basolateral side (AB) and basolateral to apical side (BA) flux studies according to Equation (3):Papp (cm/s) = (dQ/dt) × (VR/AC0)(3) where, dQ/dt is the permeability rate which means the steady-state linear rate of change of concentration (mg/L) per second (s) at the acceptor side; A is the surface area of the cell monolayer (1.12 cm^2). C0 is the initial concentration at the donor side (mg/L) at t = 0 s and VR is the volume of the solution of the acceptor side (mL).
The efflux ratio (ER) of the polyphenol was assessed by calculating the Equation (4):ER = Papp (BA)/Papp (AB)(4) where, Papp (BA) is the apparent permeability coefficient of the polyphenol from basolateral to apical side and Papp (AB) is the apparent permeability coefficient from apical to basolateral side. ER is a measure of the relative contributions of active and passive transport to bi-direction flux across the cell monolayer.
On the technique in general: Caco-2 monolayers are a common model of the intestinal barrier.

[1] abbreviates: BA experiment, S1 (15 mg/mL GSE).
Where [2] appears, read: BA experiment, S2 (22 mg/mL GSE).

For the compound `OC[C@H]1O[C@@H](Oc2cc3c(O)cc(O)cc3[o+]c2-c2cc(O)c(O)c(O)c2)[C@H](O)[C@@H](O)[C@@H]1O` [D3G, delphinidin-3-O-glucoside], the “detection at the acceptor side of the Caco-2 cell monolayer” value (“detection at the acceptor side” below) was “not detected”. Under “S1 (15 mg/mL GSE)”, the “Apical Side 0 min” value is 2.1 ± 0.2 ^a mg/L, the “Apical Side 75 min” value was 1.9 ± 0.2 ^a,b mg/L, the “Apical Side 90 min” value is given as 1.8 ± 0.1 ^b,c mg/L and the “Apical Side 115 min” value is 1.6 ± 0.1 ^c mg/L. Moreover, the “Apical Side 180 min” value (S1 (15 mg/mL GSE)) is reported as 1.5 ± 0.1 ^c mg/L. For the same compound, for the setting “S2 (22 mg/mL GSE)”, the “Apical Side 0 min” value is reported as 4.7 ± 0.1 ^a mg/L, the “Apical Side 75 min” value is on record as 4.4 ± 0.1 ^b mg/L, the “Apical Side 90 min” value is given as 4.3 ± 0.1 ^c mg/L and the “Apical Side 115 min” value was 4.05 ± 0.09 ^c mg/L. Further, the “Apical Side 180 min” value (S2 (22 mg/mL GSE)) is listed as 3.94 ± 0.08 ^c mg/L. In addition, under setting [1], the “Basolateral Side 0 min” value is listed as 2.7 ± 0.2 ^a mg/L, the “Basolateral Side 75 min” value is given as 2.6 ± 0.2 ^a,b mg/L, the “Basolateral Side 90 min” value is on record as 2.5 ± 0.2 ^b,c mg/L and the “Basolateral Side 115 min” value is 2.4 ± 0.2 ^b,c mg/L. Under setting [1], the “Basolateral Side 180 min” value is on record as 2.3 ± 0.2 ^c mg/L. Under setting [2], the “Basolateral Side 0 min” value is given as 3.6 ± 0.2 ^a mg/L, the “Basolateral Side 75 min” value is 3.5 ± 0.2 ^a mg/L, the “Basolateral Side 90 min” value is given as 3.4 ± 0.2 ^a mg/L and the “Basolateral Side 115 min” value is listed as 3.4 ± 0.2 ^d mg/L. Further, the “Basolateral Side 180 min” value under setting [2] was 3.4 ± 0.2 ^a mg/L.
Take `O=c1c(OC2O[C@H](CO)[C@H](O)[C@H](O)[C@H]2O)c(-c2ccc(O)cc2)oc2cc(O)cc(O)c12` (stereo partly shown) [K3Gal, kaempferol-3-galactoside]: the “detection at the acceptor side” value is listed as “not detected”. Moreover, under “S1 (15 mg/mL GSE)”, the “Apical Side 0 min” value is listed as 0.63 ± 0.02 ^a mg/L, the “Apical Side 75 min” value is listed as 0.52 ± 0.02 ^b mg/L, the “Apical Side 90 min” value is given as 0.45 ± 0.02 ^c mg/L and the “Apical Side 115 min” value was 0.39 ± 0.01 ^d mg/L. Further, under “S1 (15 mg/mL GSE)”, the “Apical Side 180 min” value is on record as 0.35 ± 0.01 ^c mg/L. Besides, for the setting “S2 (22 mg/mL GSE)”, the “Apical Side 0 min” value is given as 1.23 ± 0.02 ^a mg/L, the “Apical Side 75 min” value is given as 1.09 ± 0.02 ^b mg/L, the “Apical Side 90 min” value was 1.01 ± 0.02 ^c mg/L and the “Apical Side 115 min” value is on record as 0.88 ± 0.02 ^d mg/L. Moreover, the “Apical Side 180 min” value (S2 (22 mg/mL GSE)) was 0.79 ± 0.02 ^c mg/L. For the setting “BA experiment, S1 (15 mg/mL GSE), 0 to 180 min”, the “reduction in concentration on the basolateral (donor) side” value amounted to 81 ± 2%. Moreover, under setting [1], the “Basolateral Side 0 min” value was 0.26 ± 0.01 mg/L and 0.26 ± 0.01 ^a mg/L; the “Basolateral Side 75 min” value is recorded as 0.19 ± 0.01 ^b mg/L; the “Basolateral Side 90 min” value is listed as 0.13 ± 0.01 ^c mg/L; the “Basolateral Side 115 min” value is on record as 0.08 ± 0.01 ^d mg/L. In addition, under setting [1], the “Basolateral Side 180 min” value was 0.05 ± 0.01 mg/L and 0.05 ± 0.01 ^c mg/L. Moreover, under setting [2], the “Basolateral Side 0 min” value is 0.79 ± 0.02 ^a mg/L, the “Basolateral Side 75 min” value is listed as 0.75 ± 0.02 ^b mg/L, the “Basolateral Side 90 min” value was 0.71 ± 0.02 ^c mg/L and the “Basolateral Side 115 min” value is 0.67 ± 0.02 ^d mg/L. The “Basolateral Side 180 min” value under setting [2] is on record as 0.64 ± 0.01 ^c mg/L.
Regarding `COc1cc(-c2[o+]c3cc(O)cc(O)c3cc2O[C@@H]2O[C@H](CO)[C@@H](O)[C@H](O)[C@H]2O)cc(O)c1O` [Pet3G, petunidin-3-O-glucoside], the “detection at the acceptor side” value is “not detected”. Further, for the setting “S1 (15 mg/mL GSE)”, the “Apical Side 0 min” value is listed as 1.8 ± 0.1 ^a mg/L, the “Apical Side 75 min” value was 1.4 ± 0.1 ^b mg/L, the “Apical Side 90 min” value was 1.2 ± 0.1 ^c mg/L and the “Apical Side 115 min” value is 1.02 ± 0.10 ^c,d mg/L. In addition, the “Apical Side 180 min” value (S1 (15 mg/mL GSE)) is listed as 0.9 ± 0.1 ^d mg/L. Further, under “S2 (22 mg/mL GSE)”, the “Apical Side 0 min” value is 4.4 ± 0.2 ^a mg/L, the “Apical Side 75 min” value is listed as 4.0 ± 0.1 ^b mg/L, the “Apical Side 90 min” value is given as 3.7 ± 0.1 ^c mg/L and the “Apical Side 115 min” value is reported as 3.33 ± 0.09 ^c mg/L. Further, the “Apical Side 180 min” value (S2 (22 mg/mL GSE)) is given as 3.16 ± 0.08 ^c mg/L. Also, under setting [1], the “Basolateral Side 0 min” value was 4.3 ± 0.1 ^a mg/L, the “Basolateral Side 75 min” value was 4.0 ± 0.1 ^b mg/L, the “Basolateral Side 90 min” value is listed as 3.8 ± 0.1 ^b,c mg/L and the “Basolateral Side 115 min” value is reported as 3.65 ± 0.09 ^c,d mg/L. Under setting [1], the “Basolateral Side 180 min” value was 3.49 ± 0.08 ^d mg/L. Besides, under setting [2], the “Basolateral Side 0 min” value is given as 3.1 ± 0.2 ^a mg/L, the “Basolateral Side 75 min” value is on record as 3.0 ± 0.2 ^a mg/L, the “Basolateral Side 90 min” value was 2.9 ± 0.2 ^a mg/L and the “Basolateral Side 115 min” value is reported as 2.7 ± 0.2 ^a mg/L. For the same compound, under setting [2], the “Basolateral Side 180 min” value is 2.7 ± 0.2 ^a mg/L.
